According to patent US9346798B2, “Dihydrobenzoxazine and tetrahydroquinoxaline sodium channel inhibitors” (AMGEN INC., priority 2012, dated 2016):

Experiments:
Type in all cases: cell-based
Nav 1.7 [1] = target: T1, Nav 1.7 (Homo sapiens (Human), UniProt Q15858); test: Nav 1.7 in vitro PX assay, PatchXpress whole cell voltage clamp; settings: HEK 293 cells stably transfected with human Nav1.7; partially inactivated state (20 to 50% inactivation)
Method in brief: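 HEK293 cells stably expressing human Nav1.7, whole-cell voltage clamp at a holding potential giving 20–50% inactivation; currents elicited by 20 msec pulses to −10 mV at 0.1 Hz.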

Nav 1.5 = Nav 1.5 (Homo sapiens (Human), UniProt Q14524); test: Nav 1.5 in vitro assay, IonWorks Quattro (IWQ) population patch-clamp; settings: HEK 293 cells stably transfected with Nav 1.5; 26th pulse to -20 mV
Chain of Nav 1.5 (Q14524 whole entry): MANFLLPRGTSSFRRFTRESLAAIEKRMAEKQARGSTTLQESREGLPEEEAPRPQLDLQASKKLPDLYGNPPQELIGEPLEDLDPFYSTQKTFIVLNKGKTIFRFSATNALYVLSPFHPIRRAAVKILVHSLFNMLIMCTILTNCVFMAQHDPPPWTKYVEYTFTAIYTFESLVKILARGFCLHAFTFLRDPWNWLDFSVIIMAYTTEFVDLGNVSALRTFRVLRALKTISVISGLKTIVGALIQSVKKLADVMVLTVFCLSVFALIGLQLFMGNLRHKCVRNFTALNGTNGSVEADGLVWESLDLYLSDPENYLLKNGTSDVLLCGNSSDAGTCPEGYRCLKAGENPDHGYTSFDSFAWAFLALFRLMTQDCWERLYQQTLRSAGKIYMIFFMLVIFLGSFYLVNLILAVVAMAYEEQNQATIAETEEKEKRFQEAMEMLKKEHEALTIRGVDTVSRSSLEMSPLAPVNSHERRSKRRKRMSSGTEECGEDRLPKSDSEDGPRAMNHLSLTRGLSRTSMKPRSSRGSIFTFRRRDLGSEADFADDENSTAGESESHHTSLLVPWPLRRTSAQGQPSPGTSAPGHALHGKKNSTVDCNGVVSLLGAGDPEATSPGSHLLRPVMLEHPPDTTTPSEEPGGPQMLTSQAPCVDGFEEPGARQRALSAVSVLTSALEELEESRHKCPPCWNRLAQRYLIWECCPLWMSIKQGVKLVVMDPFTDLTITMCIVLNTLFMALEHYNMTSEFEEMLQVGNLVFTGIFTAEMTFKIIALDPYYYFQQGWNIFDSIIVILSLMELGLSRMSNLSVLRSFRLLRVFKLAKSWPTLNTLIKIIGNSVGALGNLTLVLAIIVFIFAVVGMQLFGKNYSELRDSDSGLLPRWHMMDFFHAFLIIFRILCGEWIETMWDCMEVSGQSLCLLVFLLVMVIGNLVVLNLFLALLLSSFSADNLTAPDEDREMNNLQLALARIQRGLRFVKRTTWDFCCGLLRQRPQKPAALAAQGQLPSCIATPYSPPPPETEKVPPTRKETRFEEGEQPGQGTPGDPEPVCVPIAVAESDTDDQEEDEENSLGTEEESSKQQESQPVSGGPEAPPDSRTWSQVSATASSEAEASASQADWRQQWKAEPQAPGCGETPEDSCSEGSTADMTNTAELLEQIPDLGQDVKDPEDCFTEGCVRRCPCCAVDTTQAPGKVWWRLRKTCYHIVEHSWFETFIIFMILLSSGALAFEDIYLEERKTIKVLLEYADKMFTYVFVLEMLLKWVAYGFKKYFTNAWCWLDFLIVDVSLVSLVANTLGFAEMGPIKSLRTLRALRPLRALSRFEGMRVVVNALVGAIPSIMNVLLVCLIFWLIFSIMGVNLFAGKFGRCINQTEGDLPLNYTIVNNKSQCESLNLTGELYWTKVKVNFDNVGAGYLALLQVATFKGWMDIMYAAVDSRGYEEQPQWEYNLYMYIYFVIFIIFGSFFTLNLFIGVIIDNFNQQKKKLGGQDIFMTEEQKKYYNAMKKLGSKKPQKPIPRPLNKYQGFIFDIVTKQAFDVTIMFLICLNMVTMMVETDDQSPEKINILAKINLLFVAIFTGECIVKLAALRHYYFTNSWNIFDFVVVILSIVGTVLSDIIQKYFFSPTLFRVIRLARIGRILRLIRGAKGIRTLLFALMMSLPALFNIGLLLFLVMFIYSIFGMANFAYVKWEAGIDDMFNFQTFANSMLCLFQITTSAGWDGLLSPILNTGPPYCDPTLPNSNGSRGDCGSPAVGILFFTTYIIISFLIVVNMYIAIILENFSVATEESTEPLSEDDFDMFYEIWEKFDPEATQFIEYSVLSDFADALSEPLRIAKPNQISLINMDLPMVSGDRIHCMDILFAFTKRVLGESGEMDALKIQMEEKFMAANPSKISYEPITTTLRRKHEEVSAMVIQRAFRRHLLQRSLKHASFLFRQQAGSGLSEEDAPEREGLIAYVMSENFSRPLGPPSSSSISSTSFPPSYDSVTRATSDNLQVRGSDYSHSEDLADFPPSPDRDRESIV
Procedure: (§1) Nav 1.7 and Nav 1.5 In Vitro Assays
(§2) HEK 293 cells stably transfected with either Nav 1.7 or with Nav 1.5 were recorded in population patch-clamp mode with the IonWorks® Quattro automated electrophysiology system in accordance with the manufacturer's specifications (Molecular Devices, LLC, Sunnyvale, Calif.). Sodium channel currents were measured in response to a train of depolarizations that induced successively greater inactivation.
(§3) Cells were held at −110 mV for three seconds (Nav 1.7) or half a second (Nav 1.5) from a holding voltage of −15 mV, then put through a series of 26 pulses of 150 msec duration to −20 mV at a frequency of 5 Hz. Cells were then left unclamped for a period of 3 to 8 minutes while a single concentration of test compound was added. Cells were then reclamped and put through the same voltage protocol. Current at the end of the 26th pulse to −20 mV was subtracted from the peak current evoked by the 26th pulse to −20 mV to correct for leak current. Percent block was calculated for each concentration in duplicate, and IC50 curves were fitted to percent block as a function of concentration.

Nav 1.7 [2] = target: T1, Nav 1.7; test: Nav 1.7 in vitro assay, IonWorks Quattro (IWQ) population patch-clamp; settings: HEK 293 cells stably transfected with Nav 1.7; 26th pulse to -20 mV
Procedure: as §1, §2, §3

T1 sequence (Q15858 whole entry): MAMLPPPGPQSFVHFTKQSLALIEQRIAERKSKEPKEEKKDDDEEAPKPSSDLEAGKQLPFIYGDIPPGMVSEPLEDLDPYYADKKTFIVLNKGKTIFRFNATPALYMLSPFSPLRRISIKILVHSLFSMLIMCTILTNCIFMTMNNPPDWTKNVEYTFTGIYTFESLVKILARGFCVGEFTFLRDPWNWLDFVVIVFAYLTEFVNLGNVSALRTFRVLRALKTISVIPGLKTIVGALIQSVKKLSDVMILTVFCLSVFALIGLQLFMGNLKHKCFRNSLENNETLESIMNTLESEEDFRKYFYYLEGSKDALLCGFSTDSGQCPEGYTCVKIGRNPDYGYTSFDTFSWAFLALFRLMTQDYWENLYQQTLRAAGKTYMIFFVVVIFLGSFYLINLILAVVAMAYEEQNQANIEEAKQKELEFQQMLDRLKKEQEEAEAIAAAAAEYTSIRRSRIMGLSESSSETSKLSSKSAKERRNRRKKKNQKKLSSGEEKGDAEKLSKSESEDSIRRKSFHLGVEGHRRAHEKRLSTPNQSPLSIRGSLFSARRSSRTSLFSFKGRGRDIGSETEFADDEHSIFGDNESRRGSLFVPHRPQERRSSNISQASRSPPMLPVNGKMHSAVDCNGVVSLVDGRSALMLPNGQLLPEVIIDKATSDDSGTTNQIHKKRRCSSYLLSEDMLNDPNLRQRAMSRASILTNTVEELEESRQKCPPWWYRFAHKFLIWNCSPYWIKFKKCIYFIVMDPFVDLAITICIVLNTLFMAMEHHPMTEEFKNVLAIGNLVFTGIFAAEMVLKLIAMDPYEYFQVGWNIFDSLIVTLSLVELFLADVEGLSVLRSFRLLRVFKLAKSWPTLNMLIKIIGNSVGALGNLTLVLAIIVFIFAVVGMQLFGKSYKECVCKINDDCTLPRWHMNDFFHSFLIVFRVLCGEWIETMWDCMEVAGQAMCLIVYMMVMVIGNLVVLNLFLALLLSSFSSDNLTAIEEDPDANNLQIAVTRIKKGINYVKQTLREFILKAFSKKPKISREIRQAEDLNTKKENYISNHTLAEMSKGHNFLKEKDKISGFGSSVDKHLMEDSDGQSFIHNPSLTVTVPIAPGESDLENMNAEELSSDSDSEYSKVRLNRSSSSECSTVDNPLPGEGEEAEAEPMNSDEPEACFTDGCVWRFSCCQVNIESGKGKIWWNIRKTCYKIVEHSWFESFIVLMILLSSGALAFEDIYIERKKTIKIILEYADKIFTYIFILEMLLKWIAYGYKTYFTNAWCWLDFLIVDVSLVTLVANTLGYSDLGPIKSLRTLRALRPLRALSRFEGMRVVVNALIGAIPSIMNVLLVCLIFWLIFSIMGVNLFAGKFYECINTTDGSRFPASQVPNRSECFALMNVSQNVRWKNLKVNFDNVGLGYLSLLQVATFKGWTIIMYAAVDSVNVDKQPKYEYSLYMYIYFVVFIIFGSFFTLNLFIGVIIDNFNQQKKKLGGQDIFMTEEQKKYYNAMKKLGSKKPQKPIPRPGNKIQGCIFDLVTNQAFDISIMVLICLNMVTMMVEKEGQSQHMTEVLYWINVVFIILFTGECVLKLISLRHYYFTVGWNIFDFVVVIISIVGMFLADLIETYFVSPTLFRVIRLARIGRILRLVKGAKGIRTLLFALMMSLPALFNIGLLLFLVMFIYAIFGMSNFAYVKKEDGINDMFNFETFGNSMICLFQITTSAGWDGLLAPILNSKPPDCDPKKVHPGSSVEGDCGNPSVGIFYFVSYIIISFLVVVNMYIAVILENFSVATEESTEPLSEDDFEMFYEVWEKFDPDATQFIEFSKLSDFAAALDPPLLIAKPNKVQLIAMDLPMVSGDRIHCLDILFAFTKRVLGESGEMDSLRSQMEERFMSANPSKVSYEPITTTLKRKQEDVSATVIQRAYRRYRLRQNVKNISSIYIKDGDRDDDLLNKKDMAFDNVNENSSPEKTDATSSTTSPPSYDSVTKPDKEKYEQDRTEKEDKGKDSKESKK

Compound	IC50 (Nav 1.7 [1])	IC50 (Nav 1.5)	IC50 (Nav 1.7 [2])
CC1COc2cc(S(=O)(=O)Nc3nccs3)ccc2N1c1ccc(C(F)(F)F)cc1C#N (racemic) [Example 96, 4-(2-Cyano-4-(Trifluoromethyl)Phenyl)-3-Methyl-N-(Thiazol-2-Yl)-3,4-Dihydro-2H-Benzo[B][1,4]Oxazine-7-Sulfonamide]	1.89 µM	1.4 µM	0.823 µM
CCC1CN(c2ccc(C(F)(F)F)cc2C#N)c2ccc(S(=O)(=O)Nc3nccs3)cc2O1 (racemic) [Example 100, 4-(2-Cyano-4-(Trifluoromethyl)Phenyl)-2-Ethyl-N-(Thiazol-2-Yl)-3,4-Dihydro-2H-Benzo[B][1,4]Oxazine-7-Sulfonamide]	5.79 µM	> 10 µM	0.679 µM
COc1cc(Cl)ccc1N1CC(C)Oc2cc(S(=O)(=O)Nc3nccs3)ccc21 (racemic) [Example 103, 4-(4-Chloro-2-Methoxyphenyl)-2-Methyl-N-(Thiazol-2-Yl)-3,4-Dihydro-2H-Benzo[B][1,4]Oxazine-7-Sulfonamide]	0.422 µM	9.59 µM	0.04 µM
COc1cc(C#N)ccc1N1CC(C)Oc2cc(S(=O)(=O)Nc3nccs3)ccc21 (racemic) [Example 106, 4-(4-cyano-2-methoxyphenyl)-2-methyl-N-(thiazol-2-yl)-3,4-dihydro-2H-benzo[b][1,4]oxazine-7-sulfonamide]	0.288 µM	> 10 µM	0.0425 µM
O=S(=O)(Nc1nccs1)c1ccc2c(c1)OCCN2c1ccc(C(F)(F)F)cc1CC(O)CO (racemic) [Example 207, 4-(2-(2,3-Dihydroxypropyl)-4-(Trifluoromethyl)Phenyl)-N-(Thiazol-2-Yl)-3,4-Dihydro-2H-Benzo[B][1,4]Oxazine-7-Sulfonamide]	0.0867 µM	3.11 µM	0.025 µM
C[C@H]1CN(c2ccc(C(F)(F)F)cc2C#N)c2ccc(S(=O)(=O)Nc3nccs3)cc2O1 (single isomer, unassigned) [Example 94]	0.149 µM	0.724 µM	0.0085 µM
C[C@@H]1CN(c2ccc(C(F)(F)F)cc2C#N)c2ccc(S(=O)(=O)Nc3nccs3)cc2O1 (single isomer, unassigned) [Example 95]	0.293 µM	6.67 µM	0.0705 µM
C[C@@H]1COc2cc(S(=O)(=O)Nc3nccs3)ccc2N1c1ccc(C(F)(F)F)cc1C#N (single isomer, unassigned) [Example 97]	0.772 µM	0.851 µM	0.208 µM
C[C@H]1COc2cc(S(=O)(=O)Nc3nccs3)ccc2N1c1ccc(C(F)(F)F)cc1C#N (single isomer, unassigned) [Example 98]	3.43 µM	> 10 µM	0.996 µM
CC[C@H]1CN(c2ccc(C(F)(F)F)cc2C#N)c2ccc(S(=O)(=O)Nc3nccs3)cc2O1 (single isomer, unassigned) [Example 101]	3.63 µM	8.5 µM	0.367 µM
CCC1CN(c2ccc(C(F)(F)F)cc2C#N)c2ccc(S(=O)(=O)Nc3nccs3)cc2O1 (single isomer, unassigned) [Example 102]	8.89 µM	> 10 µM	1.39 µM
COc1cc(Cl)ccc1N1C[C@H](C)Oc2cc(S(=O)(=O)Nc3nccs3)ccc21 (single isomer, unassigned) [Example 104]	0.657 µM	> 10 µM	0.11 µM
COc1cc(Cl)ccc1N1C[C@@H](C)Oc2cc(S(=O)(=O)Nc3nccs3)ccc21 (single isomer, unassigned) [Example 105]	0.894 µM	> 10 µM	0.0535 µM
COc1cc(C#N)ccc1N1C[C@H](C)Oc2cc(S(=O)(=O)Nc3nccs3)ccc21 (single isomer, unassigned) [Example 107]	0.309 µM	> 10 µM	0.0285 µM
COc1cc(C#N)ccc1N1C[C@@H](C)Oc2cc(S(=O)(=O)Nc3nccs3)ccc21 (single isomer, unassigned) [Example 108]	0.303 µM	> 10 µM	0.0455 µM
O=S(=O)(Nc1nccs1)c1ccc2c(c1)OCCN2c1ccc(C(F)(F)F)cc1C[C@H](O)CO (single isomer, unassigned) [Example 208]	0.258 µM	0.896 µM	0.0185 µM
O=S(=O)(Nc1nccs1)c1ccc2c(c1)OCCN2c1ccc(C(F)(F)F)cc1C[C@@H](O)CO (single isomer, unassigned) [Example 209]	0.165 µM	0.497 µM	0.0125 µM
O=S(=O)(Nc1ncns1)c1ccc2c(c1)OCCN2c1ccc(C(F)(F)F)cc1Br [Example 1, 4-(2-Bromo-4-(Trifluoromethyl)Phenyl)-N-(1,2,4-Thiadiazol-5-Yl)-3,4-Dihydro-2H-Benzo[B][1,4]Oxazine-7-Sulfonamide]	0.0589 µM	> 10 µM	0.0113 µM
O=S(=O)(Nc1ncns1)c1ccc2c(c1)OCCN2c1ccc(C(F)(F)F)cc1Cl [Example 2, 4-(2-Chloro-4-(Trifluoromethyl)Phenyl)-N-(1,2,4-Thiadiazol-5-Yl)-3,4-Dihydro-2H-Benzo[B][1,4]Oxazine-7-Sulfonamide]	0.0386 µM	> 10 µM	0.00783 µM
Cn1nccc1-c1cc(C(F)(F)F)ccc1N1CCOc2cc(S(=O)(=O)Nc3ncns3)ccc21 [Example 3, 4-(2-(1-Methyl-1H-Pyrazol-5-Yl)-4-(Trifluoromethyl)Phenyl)-N-(1,2,4-Thiadiazol-5-Yl)-3,4-Dihydro-2H-Benzo[B][1,4]Oxazine-7-Sulfonamide]	0.0577 µM	1.87 µM	0.0108 µM
O=S(=O)(Nc1ncns1)c1ccc2c(c1)OCCN2c1ccc(C(F)(F)F)cc1-c1cn[nH]c1 [Example 4, 4-(2-(1H-Pyrazol-4-Yl)-4-(Trifluoromethyl)Phenyl)-N-(1,2,4-Thiadiazol-5-Yl)-3,4-Dihydro-2H-Benzo[B][1,4]Oxazine-7-Sulfonamide]	0.0576 µM	0.944 µM	0.00933 µM
O=S(=O)(Nc1nccs1)c1ccc2c(c1)OCCN2c1ccc(C(F)(F)F)cc1Cl [Example 5, 4-(2-Chloro-4-(Trifluoromethyl)Phenyl)-N-(Thiazol-2-Yl)-3,4-Dihydro-2H-Benzo[B][1,4]Oxazine-7-Sulfonamide]	0.322 µM	4.03 µM	0.245 µM
O=S(=O)(Nc1ncns1)c1ccc2c(c1)OCCN2c1ccc(C(F)(F)F)cc1C1=CCNCC1 [Example 7, 4-(2-(1,2,3,6-Tetrahydropyridin-4-Yl)-4-(Trifluoromethyl)Phenyl)-N-(1,2,4-Thiadiazol-5-Yl)-3,4-Dihydro-2H-Benzo[B][1,4]Oxazine-7-Sulfonamide]	0.0237 µM	0.349 µM	0.0044 µM
NCc1nsc(NS(=O)(=O)c2ccc3c(c2)OCCN3c2ccc(C(F)(F)F)cc2Cl)n1 [Example 8, N-(3-(Aminomethyl)-1,2,4-Thiadiazol-5-Yl)-4-(2-Chloro-4-(Trifluoromethyl)Phenyl)-3,4-Dihydro-2H-Benzo[B][1,4]Oxazine-7-Sulfonamide 2,2,2-Trifluoroacetate]	16 µM	> 10 µM	7.58 µM
O=S(=O)(Nc1cc(Cl)ncn1)c1ccc2c(c1)OCCN2c1ccc(C(F)(F)F)cc1Cl [Example 9, 4-(2-Chloro-4-(Trifluoromethyl)Phenyl)-N-(6-Chloropyrimidin-4-Yl)-3,4-Dihydro-2H-Benzo[B][1,4]Oxazine-7-Sulfonamide]	6.32 µM	> 10 µM	0.876 µM
Cc1nsc(NS(=O)(=O)c2ccc3c(c2)OCCN3c2ccc(C(F)(F)F)cc2Cl)n1 [Example 10, 4-(2-Chloro-4-(Trifluoromethyl)Phenyl)-N-(3-Methyl-1,2,4-Thiadiazol-5-Yl)-3,4-Dihydro-2H-Benzo[B][1,4]Oxazine-7-Sulfonamide]	6.75 µM	> 10 µM	4.61 µM
O=S(=O)(Nc1cscn1)c1ccc2c(c1)OCCN2c1ccc(C(F)(F)F)cc1Cl [Example 11, 4-(2-Chloro-4-(Trifluoromethyl)Phenyl)-N-(Thiazol-4-Yl)-3,4-Dihydro-2H-Benzo[B][1,4]Oxazine-7-Sulfonamide]	12.6 µM	> 10 µM	3.21 µM
O=S(=O)(Nc1ccon1)c1ccc2c(c1)OCCN2c1ccc(C(F)(F)F)cc1Cl [Example 13, 4-(2-Chloro-4-(Trifluoromethyl)Phenyl)-N-(Isoxazol-3-Yl)-3,4-Dihydro-2H-Benzo[B][1,4]Oxazine-7-Sulfonamide]	5.16 µM	> 10 µM	1.72 µM
O=S(=O)(Nc1ncccn1)c1ccc2c(c1)OCCN2c1ccc(C(F)(F)F)cc1Cl [Example 16, 4-(2-Chloro-4-(Trifluoromethyl)Phenyl)-N-(Pyrimidin-2-Yl)-3,4-Dihydro-2H-Benzo[B][1,4]Oxazine-7-Sulfonamide]	11.9 µM	> 10 µM	1.86 µM
